What was measured:
Assay in all cases: relative viability (nuclei count vs DMSO), 5 days (fraction); higher = more cells survive
IDH-C35 + Phenformin = compound: Cc1ccccc1C(C(=O)NC1CCCCC1)N(C(=O)Cn1ccnc1C)c1cccc(F)c1 [IDH-C35] + N=C(N)NC(=N)NCCc1ccccc1 [Phenformin] (partner 250 µM)
Summary of the method: (§1)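 Relative viability was taken as the ratio of nuclei in treated wells to nuclei in vehicle wells. Lung cancer cell lines in 1536-well plates received compounds by pin tool one day after seeding, either one drug alone or a fixed anchor-drug dose plus five library-drug doses (not always all listed) in √10 steps. Nuclei were counted on 4× images after 5 days of treatment, and values are medians of duplicate plates.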

IDH-C35 = compound: Cc1ccccc1C(C(=O)NC1CCCCC1)N(C(=O)Cn1ccnc1C)c1cccc(F)c1 [IDH-C35]
Summary of the method: (§2)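 Lung cancer cell lines in 1536-well plates were exposed by pinning to five library-drug doses (not always all listed) √10 apart, following an overnight hold at 37 °C. MetaXpress counted Hoechst-stained nuclei from 4× images taken after 5 days without medium change. Viability is the median ratio of treated-well to vehicle-well nuclei across plates. Plates required control CV below 25% and at least one doubling.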

[1] = compound: CC1=C(C(=NN1)C)CC2=C(C3=C(S2)N(C(=O)N(C3=O)C)CC(C)C)C(=O)N4C[C@@H](CO4)O
Summary of the method: as §2

[2] = compound: CC1=C(C(=NN1)C)CC2=C(C3=C(S2)N(C(=O)N(C3=O)C)CC(C)C)C(=O)N4C[C@@H](CO4)O + CC1(C)CCC(c2ccc(Cl)cc2)=C(CN2CCN(c3ccc(C(=O)NS(=O)(=O)c4ccc(N[C@H](CCN5CCOCC5)CSc5ccccc5)c(S(=O)(=O)C(F)(F)F)c4)cc3)CC2)C1 [Navitoclax] (partner 0.5 µM)
Summary of the method: as §1

Cell Line	relative viability (IDH-C35 + Phenformin; first compound 0.08 µM)	relative viability (IDH-C35 + Phenformin; first compound 0.253 µM)	relative viability (IDH-C35 + Phenformin; first compound 0.8 µM)	relative viability (IDH-C35 + Phenformin; first compound 2.53 µM)	relative viability (IDH-C35 + Phenformin; first compound 8 µM)	relative viability (IDH-C35; 0.08 µM)	relative viability (IDH-C35; 0.253 µM)	relative viability (IDH-C35; 0.8 µM)	relative viability (IDH-C35; 2.53 µM)	relative viability (IDH-C35; 8 µM)	relative viability ([1]; 0.0025 µM)	relative viability ([1]; 0.007906 µM)	relative viability ([1]; 0.025 µM)	relative viability ([1]; 0.07906 µM)	relative viability ([1]; 0.25 µM)	relative viability ([2]; first compound 0.0025 µM)	relative viability ([2]; first compound 0.007906 µM)	relative viability ([2]; first compound 0.025 µM)	relative viability ([2]; first compound 0.07906 µM)	relative viability ([2]; first compound 0.25 µM)
NCI-H522	0.643	0.65	0.764	0.629	0.659	1.02	1.07	0.931	0.884	0.99	0.933	1.12	0.735	0.64	0.653	–	–	–	–	–
HCC-15	0.521	0.464	0.501	–	0.45	1	0.97	0.956	–	0.925	1.04	1.03	1.01	1.04	1.12	0.735	0.725	0.712	0.698	0.675
A-427	0.359	0.3	0.338	0.314	0.312	1.06	1.01	0.926	0.991	1.03	1.04	1.1	0.996	1.05	1.1	1.01	0.948	0.889	0.886	1.16
NCI-H2228	0.255	0.374	0.436	0.417	0.405	0.87	0.935	0.968	1.01	0.935	0.925	1.24	1.13	0.907	1.08	0.955	0.961	1.15	1	1.14
NCI-H1734	0.402	0.449	0.4	0.359	0.346	1.06	1.04	1	0.879	0.995	1.01	1.16	1.03	0.889	0.962	0.843	1.1	0.772	0.931	1.02
PC-14	0.53	0.611	0.642	0.434	0.662	1.04	0.996	1	0.997	0.937	1.06	1.06	0.889	1.12	1.16	1.02	1.09	1.02	1	1.03
NCI-H1915	0.364	0.37	0.382	0.369	0.341	0.993	0.975	1.01	0.952	0.913	1.04	1.03	0.993	0.991	1.03	0.81	0.789	0.763	0.79	0.832
NCI-H1666	0.573	0.578	0.594	0.538	0.54	1	0.956	0.965	1.06	1.04	1.09	0.97	1.01	0.983	1.02	0.969	0.954	1.01	1.14	1.1
HCC-366	0.658	0.629	0.621	–	0.578	1.04	1.04	0.97	0.935	0.934	0.986	1.03	1.03	0.988	1.04	1.09	0.997	1.05	1.03	1.13
SK-MES-1	0.696	0.649	0.6	0.673	0.648	0.983	0.984	0.985	1.02	0.986	1.03	1.07	1.02	1.07	1.06	1.3	1.42	1.12	1.28	1.33
SW 1573	0.456	0.372	0.387	0.359	0.352	1.1	1.12	0.951	0.875	0.898	1.02	1.09	0.975	0.957	1.05	0.978	1.1	0.927	0.929	1.12
NCI-H661	0.305	0.275	0.307	0.28	0.266	0.994	0.971	0.978	0.983	0.91	0.948	0.997	0.956	0.946	0.964	–	–	–	–	–
PC-3 [JPC-3]	0.471	0.447	0.521	0.509	0.453	1.04	1	1.04	1.08	1.04	1.1	1.05	1.01	1.04	1.07	0.898	0.795	0.83	0.827	0.906
NCI-H1623	0.604	0.638	0.573	0.613	0.557	0.969	0.975	0.95	1	1.04	1.02	0.899	1.01	1.01	0.955	–	–	–	–	–
